Data: patent publication US20240132484A1, “BROAD SPECTRUM ANTIVIRAL COMPOUNDS TARGETING THE SKI COMPLEX” (priority 2020, published 2024)
Several values for one entry are separate records, joined by “and”; a condition that tells them apart may be missing. Identical values can stand only once. Like-named read-outs stand apart in the source and are kept apart here.

Columns and labels:
SARS2 = format: cell-based, SARS-CoV-2; conditions: for Infection Data: Percentage Infection Relative to Appropriate DMSO Control: avg background subtraction, replicate wells; for Infection Data: Average, Mean: average of Exp 1-3 (SMW475, SMW477, SMW478), n 9; for Percentage Inhibition Average 1 μM / Screening data (Relative infection to DMSO controls) Average 1 μM: SARS2, 1 μM; for Screening data (Relative infection to DMSO controls) Average 1 μM / Screening data (Relative infection to DMSO controls) Average 5 μM / Screening data (Relative infection to DMSO controls) Average 10 μM / Screening data (Relative infection to DMSO controls) Average 25 μM / Screening data (Relative infection to DMSO controls) Average 50 μM / Average (relative infection to DMSO over the 5 tested concentrations): 100=DMSO control; for Percentage Inhibition Average 5 μM / Screening data (Relative infection to DMSO controls) Average 5 μM: SARS2, 5 μM; for Percentage Inhibition Average 10 μM / Screening data (Relative infection to DMSO controls) Average 10 μM: SARS2, 10 μM; for Percentage Inhibition Average 25 μM / Screening data (Relative infection to DMSO controls) Average 25 μM: SARS2, 25 μM; for Percentage Inhibition Average 50 μM / Screening data (Relative infection to DMSO controls) Average 50 μM: SARS2, 50 μM; for Average (relative infection to DMSO over the 5 tested concentrations): SARS2, average over 1 to 50 uM
cells (nuclei count) = conditions: for Toxicity Data: Average, Mean: average of Exp 1-3 (SMW475, SMW477, SMW478), n 9; for Relative cell count to DMSO controls, Average 1 μM / Relative cell count to DMSO controls, Average 5 μM / Relative cell count to DMSO controls, Average 10 μM / Relative cell count to DMSO controls, Average 25 μM / Relative cell count to DMSO controls, Average 50 μM: toxicity data, 100=DMSO control; for Relative cell count to DMSO controls, Average (for correlation analysis): average value over the 5 tested concentrations (1 to 50 uM)

## CN(C)CCN(Cc1ccsc1)Cc1cccc(-c2ccsc2)c1 [SILCS20]
SARS2; 1 uM, Exp 1 (SMW475)
  Infection Data: Percentage Infection Relative to Appropriate DMSO Control: 104.96% and 108.84% and 98.09%
SARS2; 1 uM, Exp 2 (SMW477)
  Infection Data: Percentage Infection Relative to Appropriate DMSO Control: 151.25% and 151.34% and 136.14%
SARS2; 1 uM, Exp 3 (SMW478)
  Infection Data: Percentage Infection Relative to Appropriate DMSO Control: 92.92% and 94.78% and 98.52%
SARS2; 1 uM
  Infection Data: Average, Mean: 115.20%
SARS2; 5 uM, Exp 1 (SMW475)
  Infection Data: Percentage Infection Relative to Appropriate DMSO Control: 71.77% and 48.90% and 69.38%
SARS2; 5 uM, Exp 2 (SMW477)
  Infection Data: Percentage Infection Relative to Appropriate DMSO Control: 133.79% and 116.24% and 114.33%
SARS2; 5 uM, Exp 3 (SMW478)
  Infection Data: Percentage Infection Relative to Appropriate DMSO Control: 62.84% and 53.65% and 64.98%
SARS2; 5 uM
  Infection Data: Average, Mean: 81.76%
SARS2; 10 uM, Exp 1 (SMW475)
  Infection Data: Percentage Infection Relative to Appropriate DMSO Control: 45.14% and 27.86% and 26.38%
SARS2; 10 uM, Exp 2 (SMW477)
  Infection Data: Percentage Infection Relative to Appropriate DMSO Control: 76.01% and 46.79% and 30.46%
SARS2; 10 uM, Exp 3 (SMW478)
  Infection Data: Percentage Infection Relative to Appropriate DMSO Control: 30.07% and 13.27% and 56.68%
SARS2; 10 uM
  Infection Data: Average, Mean: 39.18%
SARS2; 25 uM, Exp 1 (SMW475)
  Infection Data: Percentage Infection Relative to Appropriate DMSO Control: 13.25% and 8.47% and 6.46%
SARS2; 25 uM, Exp 2 (SMW477)
  Infection Data: Percentage Infection Relative to Appropriate DMSO Control: 9.75% and 7.72% and 7.01%
SARS2; 25 uM, Exp 3 (SMW478)
  Infection Data: Percentage Infection Relative to Appropriate DMSO Control: 6.76% and 9.52% and 8.68%
SARS2; 25 uM
  Infection Data: Average, Mean: 8.63%
SARS2; 50 uM, Exp 1 (SMW475)
  Infection Data: Percentage Infection Relative to Appropriate DMSO Control: −0.47% and 0.47% and 1.44%
SARS2; 50 uM, Exp 2 (SMW477)
  Infection Data: Percentage Infection Relative to Appropriate DMSO Control: −0.57% and −0.19% and −1.43%
SARS2; 50 uM, Exp 3 (SMW478)
  Infection Data: Percentage Infection Relative to Appropriate DMSO Control: 125.56% and 159.57% and 149.88%
SARS2; 50 uM
  Infection Data: Average, Mean: 48.15%
SARS2
  Percentage Inhibition Average 1 μM: −15.20%
  Screening data (Relative infection to DMSO controls) Average 1 μM: 115.20
  Percentage Inhibition Average 5 μM: 18.24%
  Screening data (Relative infection to DMSO controls) Average 5 μM: 81.76
  Percentage Inhibition Average 10 μM: 60.82%
  Screening data (Relative infection to DMSO controls) Average 10 μM: 39.18
  Percentage Inhibition Average 25 μM: 91.37%
  Screening data (Relative infection to DMSO controls) Average 25 μM: 8.63
  Percentage Inhibition Average 50 μM: 51.85%
  Screening data (Relative infection to DMSO controls) Average 50 μM: 48.15
  Average (relative infection to DMSO over the 5 tested concentrations): 58.58
Cells (nuclei count); 1 uM
  Toxicity Data: Average, Mean: 96.85%
Cells (nuclei count)
  Relative cell count to DMSO controls, Average 1 μM: 96.85
  Relative cell count to DMSO controls, Average 5 μM: 116.85
  Relative cell count to DMSO controls, Average 10 μM: 138.88
  Relative cell count to DMSO controls, Average 25 μM: 78.06
  Relative cell count to DMSO controls, Average 50 μM: 7.37
  Relative cell count to DMSO controls, Average (for correlation analysis): 87.60
Cells (nuclei count); 5 uM
  Toxicity Data: Average, Mean: 116.85%
Cells (nuclei count); 10 uM
  Toxicity Data: Average, Mean: 138.88%
Cells (nuclei count); 25 uM
  Toxicity Data: Average, Mean: 78.06%
Cells (nuclei count); 50 uM
  Toxicity Data: Average, Mean: 7.37%

## COc1ccc(C2NC(=O)NC(C)=C2C(=O)NCC2CCC2)cc1OC (centres unmarked) [SILCS64]
SARS2
  Percentage Inhibition Average 1 μM: 20.42%
  Screening data (Relative infection to DMSO controls) Average 1 μM: 79.58
  Percentage Inhibition Average 5 μM: 66.48%
  Screening data (Relative infection to DMSO controls) Average 5 μM: 33.52
  Percentage Inhibition Average 10 μM: −11.17%
  Screening data (Relative infection to DMSO controls) Average 10 μM: 111.17
  Percentage Inhibition Average 25 μM: −30.68%
  Screening data (Relative infection to DMSO controls) Average 25 μM: 130.68
  Percentage Inhibition Average 50 μM: −58.69%
  Screening data (Relative infection to DMSO controls) Average 50 μM: 158.69
  Average (relative infection to DMSO over the 5 tested concentrations): 102.73
Cells (nuclei count)
  Relative cell count to DMSO controls, Average 1 μM: 103.13
  Relative cell count to DMSO controls, Average 5 μM: 119.2
  Relative cell count to DMSO controls, Average 10 μM: 92.78
  Relative cell count to DMSO controls, Average 25 μM: 84.89
  Relative cell count to DMSO controls, Average 50 μM: 75.66
  Relative cell count to DMSO controls, Average (for correlation analysis): 95.13
